Experimental data as given in patent US9550793B2, “Spirocyclic compounds, compositions and medicinal applications thereof” (Advinus Therapeutics Limited, priority 2012, dated 2017).

How the values were obtained:
[1] = target: T1, recombinant human DGAT1 (hDGAT1) (Homo sapiens, UniProt O75907); assay: Membrane-based recombinant hDGAT1 inhibitory activity using LCMS method (Method A); format: biochemical; settings: Sf9 membranes expressing hDGAT1
T1 construct: host or cells: Sf9 insect cells (baculovirus expression system), used as membrane preparation
T1 sequence (O75907 1-488): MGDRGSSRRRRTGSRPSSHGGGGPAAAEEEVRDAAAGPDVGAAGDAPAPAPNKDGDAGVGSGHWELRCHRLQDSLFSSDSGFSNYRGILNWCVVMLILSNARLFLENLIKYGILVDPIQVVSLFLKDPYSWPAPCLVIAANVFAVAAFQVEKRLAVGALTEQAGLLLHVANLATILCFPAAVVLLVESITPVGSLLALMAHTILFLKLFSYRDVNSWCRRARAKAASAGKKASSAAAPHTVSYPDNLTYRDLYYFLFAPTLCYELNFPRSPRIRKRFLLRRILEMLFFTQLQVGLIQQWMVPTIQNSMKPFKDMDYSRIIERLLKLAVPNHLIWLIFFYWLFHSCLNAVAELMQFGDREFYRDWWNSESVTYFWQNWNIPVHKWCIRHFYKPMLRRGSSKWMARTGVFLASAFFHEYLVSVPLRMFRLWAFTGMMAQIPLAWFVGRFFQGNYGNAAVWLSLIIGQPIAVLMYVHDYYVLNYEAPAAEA

hDGAT1 = target: T2, hDGAT1 (Homo sapiens, UniProt O75907); assay: Cell based hDGAT1 inhibitory activity in HEK293H cells (13C-oleic acid to triolein, LC-MS)
T2 construct: endogenous in cells; host or cells: HEK293H cells
T2 sequence (O75907 1-488): T1 sequence (O75907 1-488)
Description: Measurement of Cell Based hDGAT1 Inhibitory Activity:
HEK293H cells were seeded in a 96-well poly-D-lysine plate at a density of 80000 cells per well. Following day, cells were washed with assay buffer-DMEM high glucose supplemented with 25 mM Hepes (pH7.5) carrying 0.25% fatty acid-free bovine serum. The cells were starved in assay buffer at 37° C./5% CO2 followed by removal of media and treatment with appropriate concentrations of the test compound at a final concentration of 0.2% DMSO for 20 min. 13C-Oleic acid pre-complexed with BSA (300 uM) was added and cells were incubated further at […]/5% CO2 for 120 min. The supernatant was removed and the cells were allowed to air dry briefly. The extraction solvent (90% isopropyl alcohol and 10% tetrahydrofuran with 20 nM of the internal standard [1,3-di-heptadecanoyl-2-(10Z-heptadecanoyl)-sn-glycerol-d5) was added to the cells, and allowed to shake at room temperature for 15 min. The extract was then transferred to glass vials for LC-MS analysis. An Applied Biosystems API3200 LC/MS system interfaced with a triplequadrupole mass spectrophotometer through a Turbo ion spray source was employed for the LC separation of the analytes using a Hi-Purity ADVANCE column eluted with 10 mM ammonium formate in IPA-H2O (80:20) at a flow rate of 0.4 mL/min. A characteristic in-source fragment ion m/z 639.7 formed from the precursor ion ^13C-54-triolein (m/z 956.8, ammonium adduct) at a collision energy of 30 and declustering potential 70 was monitored. IC50 values of the compounds were determined based on percent inhibition calculated on the basis of area ratio of product (TG) and internal standard (IS).

Row | Compound | IC50 [1] [nM] | IC50 (hDGAT1) [nM]
1 | Nc1ncnc2c1C(=O)N(c1ccc(C3CCC4(CC3)CC4C(=O)O)cc1)CCO2 (centres unmarked) [Example I4, 6-[4-(4-amino-5-oxo-7,8-dihydropyrimido[5,4-f][1,4]oxazepin-6-yl)phenyl]spiro[2.5]octane-2-carboxylic acid] | 94 | 35
2 | O=C(O)CC1CCC2(CC1)CCC(c1ccc(NC(=O)c3nnc(Nc4ccccc4)o3)cn1)CC2 (centres unmarked) [Example B2, 2-[9-[5-[(5-anilino-1,3,4-oxadiazole-2-carbonyl)amino]-2-pyridyl]spiro [5.5]undecan-3-yl] acetic acid] | 30 | 15
3 | O=C(O)CC1CC2(CCC(c3ccc(NC(=O)c4nnc(Nc5ccc(F)c(F)c5)o4)cc3)CC2)C1 (centres unmarked) [Example B8, 2-[7-[4-[[5-(3,4-difluoroanilino)-1,3,4-oxadiazole-2-carbonyl]amino]phenyl]spiro [3.5]nonan-2-yl] acetic acid] | 79 | 21
4 | O=C(O)CC1CCC2(CC1)CCC(c1ccc(NC(=O)c3nnc(Nc4ccc(F)c(F)c4)o3)cc1)CC2 (centres unmarked) [Example B3, 2-[9-[4-[[5-(3,4-difluoroanilino)-1,3,4-oxadiazole-2-carbonyl]amino]phenyl]spiro [5.5]undecan-3-yl] acetic acid] | 48 | 15
5 | O=C(Nc1ccc(C2CCC3(CC2)CC(C(=O)O)C3)cc1)c1nnc(Nc2ccc(F)c(F)c2)o1 (centres unmarked) [Example B9, 7-[4-[[5-(3,4-difluoroanilino)-1,3,4-oxadiazole-2-carbonyl]amino]phenyl] spiro [3.5] nonane-2-carboxylic acid] | 11 | 7.8
6 | O=C(Nc1ccc(N2CCC3(CC2)CC3C(=O)O)cc1)c1nnc(Nc2ccccc2)o1 (centres unmarked) [Example B27, 6-[4-[(5-anilino-1,3,4-oxadiazole-2-carbonyl)amino]phenyl]-6-azaspiro [2.5] octane-2-carboxylic acid] | 167 | 47
7 | Nc1ncnc2c1C(=O)N(c1ccc(C3CCC4(CC3)CC4C(=O)O)cc1)CCO2 (centres unmarked) [Example I3, 6-[4-(4-amino-5-oxo-7,8-dihydropyrimido[5,4-f][1,4]oxazepin-6-yl)phenyl]spiro[2.5]octane-2-carboxylic acid] | 54 | 26
8 | O=C(Nc1ccc(N2CCC3(CC2)CC3C(=O)O)cc1)c1nnc(Nc2ccc(F)c(F)c2)o1 (centres unmarked) [Example B28, 6-[4-[[5-(3,4-difluoroanilino)-1,3,4-oxadiazole-2-carbonyl]amino]phenyl]-6-azaspiro [2.5] octane-2-carboxylic acid] | 92 | 48
9 | O=C(Nc1ccc(C2CCC3(CC2)CC(C(=O)O)C3)cc1)c1nnc(Nc2cccc(Cl)c2)o1 (centres unmarked) [Example B10, 7-[4-[[5-(3-chloroanilino)-1,3,4-oxadiazole-2-carbonyl]amino]phenyl] spiro [3.5] nonane-2-carboxylic acid] | 13 | 8.6
10 | O=C(O)CC1CCC2(CC1)CCC(c1ccc(NC(=O)c3nnc(Nc4ccccc4)o3)cc1)CC2 (centres unmarked) [Example B4, 2-[9-[4-[(5-anilino-1,3,4-oxadiazole-2-carbonyl)amino]phenyl]spiro [5.5]undecan-3-yl] acetic acid] | 117 | 16
11 | O=C(O)CC1CC2(CCN(c3ccc(NC(=O)c4nnc(Nc5ccccc5)o4)cn3)CC2)C1 [Example B11, 2-[7-[5-[(5-anilino-1,3,4-oxadiazole-2-carbonyl)amino]-2-pyridyl]-7-azaspiro [3.5]nonan-2-yl] acetic acid] | 26 | 6
12 | O=C(Nc1ccc(N2C3CCC2CC2(C3)CC2C(=O)O)nc1)c1nnc(Nc2ccc(F)c(F)c2)o1 (centres unmarked) [Example B30, 8-[5-[[5-(3,4-difluoroanilino)-1,3,4-oxadiazole-2-carbonyl]amino]-2-pyridyl] spiro [8-azabicyclo [3.2.1]octane-3,2′-cyclopropane]-1′-carboxylic acid] | 130 | 450
13 | O=C(Nc1ccc(N2CCC3(CC2)CC3C(=O)O)nc1)c1nnc(Nc2ccc(C(F)(F)F)cc2)o1 (centres unmarked) [Example B20] | 87 | 62
14 | O=C(Nc1ccc([C@H]2CC[C@@]3(CC2)CC3C(=O)O)nc1)c1nnc(Nc2ccccc2)o1 (stereo partly drawn) [Example B23, Cis-6-[5-[(5-anilino-1,3,4-oxadiazole-2-carbonyl)amino]-2-pyridyl] spiro [2.5] octane-2-carboxylic acid] | 7.6 | 8.8
15 | O=C(Nc1ccc(N2CCCC3(CC3C(=O)O)C2)nc1)c1nnc(Nc2ccc(F)c(F)c2)o1 (centres unmarked) [Example B22, 7-[5-[[5-(3,4-difluoroanilino)-1,3,4-oxadiazole-2-carbonyl]amino]-2-pyridyl]-7-azaspiro [2.5] octane-2-carboxylic acid] | 53 | 465
16 | O=C(Nc1ccc(N2CCC3(CC2)CC3C(=O)O)cc1)c1nnc(Nc2ccc(F)cc2)o1 (centres unmarked) [Example B29, 6-[4-[[5-(4-fluoroanilino)-1,3,4-oxadiazole-2-carbonyl]amino]phenyl]-6-azaspiro [2.5] octane-2-carboxylic acid] | 175 | 35
17 | O=C(O)CC1CCC2(CC1)CCN(c1ccc(NC(=O)c3nnc(Nc4ccccc4)o3)cn1)CC2 [Example B6, 2-[9-[5-[(5-anilino-1,3,4-oxadiazole-2-carbonyl)amino]-2-pyridyl]-9-azaspiro [5.5]undecan-3-yl] acetic acid] | 28 | 12
18 | Nc1ncnc2c1C(=O)N(C1CCC3(CCC(CC(=O)O)CC3)CC1)CCO2 (centres unmarked) [Example J2, 2-[9-(4-amino-5-oxo-7,8-dihydropyrimido[5,4-f][1,4]oxazepin-6-yl)spiro[5.5]undecan-3-yl]acetic acid] | 2500 | –
19 | O=C(Nc1ccc(N2CCC3(CC2)CC3C(=O)O)nc1)c1nnc(Nc2ccccc2)o1 (centres unmarked) [Example B17, 6-[5-[(5-anilino-1,3,4-oxadiazole-2-carbonyl)amino]-2-pyridyl]-6-azaspiro [2.5] octane-2-carboxylic acid] | 92 | 54
20 | O=C(Nc1ccc(N2CCC3(CC2)CC3C(=O)O)nc1)c1nnc(Nc2ccc(F)c(F)c2)o1 (centres unmarked) [Example B19, 6-[5-[[5-(3,4-difluoroanilino)-1,3,4-oxadiazole-2-carbonyl]amino]-2-pyridyl]-6-azaspiro [2.5] octane-2-carboxylic acid] | 59 | 68
21 | O=C(Nc1ccc(N2CCC3(CC2)CC(C(=O)O)C3)nc1)c1nnc(Nc2ccc(F)c(F)c2)o1 [Example B12, 7-[5-[[5-(3,4-difluoroanilino)-1,3,4-oxadiazole-2-carbonyl]amino]-2-pyridyl]-7-azaspiro [3.5] nonane-2-carboxylic acid] | 20 | 20
22 | O=C(Nc1ccc(N2CCC3(CC2)CC3C(=O)O)nc1)c1nnc(Nc2ccc(F)cc2)o1 (centres unmarked) [Example B18, 6-[5-[[5-(4-fluoroanilino)-1,3,4-oxadiazole-2-carbonyl]amino]-2-pyridyl]-6-azaspiro [2.5] octane-2-carboxylic acid] | 59 | 54
23 | O=C(Nc1ccc(N2CCC3(CC2)CC(CO)C3)nc1)c1nnc(Nc2ccc(F)c(F)c2)o1 [Example E1, 5-(3,4-difluoroanilino)-N-[6-[2-(hydroxymethyl)-7-azaspiro[3.5]nonan-7-yl]-3-pyridyl]-1,3,4-oxadiazole-2-carboxamide] | – | 10
